Assay results as given in ChEMBL document CHEMBL1131977, “Synthesis and in vitro activity of new oxazolidinone antibacterial agents having substituted isoxazoles” (1999).
In brackets after ≈: the same amount, converted by molar mass.

Experiments:
Assay type in all cases: functional
Enterococcus faecalis = experiment: In vitro antibacterial activity against Enterococcus faecalis C6291 (E.f.1).
Staphylococcus aureus [1] = experiment: In vitro antibacterial activity against Staphylococcus aureus (S. a.) ATCC 29213.
[2] = test system: Staphylococcus epidermidis; experiment: In vitro antibacterial activity against Staphylococcus epidermis (S.e.2) C2235.
[3] = test system: Staphylococcus epidermidis; experiment: In vitro antibacterial activity against Staphylococcus epidermis (S.e.1) […].
Staphylococcus aureus [4] = experiment: In vitro antibacterial activity against methicillin-susceptible Staphylococcus aureus (MSSA) C2214.
Staphylococcus aureus [5] = experiment: In vitro antibacterial activity against methicillin-resistant Staphylococcus aureus (MRSA) C6068.
Enterococcus faecium [6] = experiment: In vitro antibacterial activity against vancomycin-resistant Enterococcus faecium C6487 (VRE).
Enterococcus faecium [7] = experiment: In vitro antibacterial activity against Enterococcus faecium C6301 (E.f.2).
Streptococcus pyogenes [8] = experiment: In vitro antibacterial activity against Streptococcus pyogenes C6003 (S.p.2).
Staphylococcus aureus [9] = experiment: In vitro antibacterial activity against ciprofloxacin-resistant Staphylococcus aureus (CRSA) C6043.
Streptococcus pyogenes [10] = experiment: In vitro antibacterial activity against Streptococcus pyogenes ATCC 8668 (S.p.1).

| SMILES | MIC (Enterococcus faecalis) [µg/mL] | MIC (Staphylococcus aureus [1]) [µg/mL] | MIC [2] [µg/mL] | MIC [3] [µg/mL] | MIC (Staphylococcus aureus [4]) [µg/mL] | MIC (Staphylococcus aureus [5]) [µg/mL] | MIC (Enterococcus faecium [6]) [µg/mL] | MIC (Enterococcus faecium [7]) [µg/mL] | MIC (Streptococcus pyogenes [8]) [µg/mL] | MIC (Staphylococcus aureus [9]) [µg/mL] | MIC (Streptococcus pyogenes [10]) [µg/mL] |
| --- | --- | --- | --- | --- | --- | --- | --- | --- | --- | --- | --- |
| CC(=O)NC[C@H]1CN(c2ccc(N3CCN(C(=O)c4cc(C(=O)N(C)C)no4)CC3)c(F)c2)C(=O)O1 | 4 (≈ 7.96 µM) | 8 (≈ 15.9 µM) | 2 (≈ 3.98 µM) | 2 (≈ 3.98 µM) | 8 (≈ 15.9 µM) | 2 (≈ 3.98 µM) | 4 (≈ 7.96 µM) | 4 (≈ 7.96 µM) | 1 (≈ 1.99 µM) | 8 (≈ 15.9 µM) | 1 (≈ 1.99 µM) |
| CC(=O)NC[C@H]1CN(c2ccc(N3CCN(C(=O)c4cc(COC(N)=O)no4)CC3)c(F)c2)C(=O)O1 | 1 (≈ 1.98 µM) | 2 (≈ 3.96 µM) | 0.5 (≈ 0.991 µM) | 0.5 (≈ 0.991 µM) | 2 (≈ 3.96 µM) | 1 (≈ 1.98 µM) | 1 (≈ 1.98 µM) | 1 (≈ 1.98 µM) | 0.5 (≈ 0.991 µM) | 2 (≈ 3.96 µM) | 0.5 (≈ 0.991 µM) |
| CC(=O)NC[C@H]1CN(c2ccc(N3CCN(Cc4cc(-c5ccc(C)cc5)no4)CC3)c(F)c2)C(=O)O1 | 16 (≈ 31.5 µM) | 32 (≈ 63 µM) | 8 (≈ 15.8 µM) | 4 (≈ 7.88 µM) | 32 (≈ 63 µM) | 8 (≈ 15.8 µM) | 8 (≈ 15.8 µM) | 8 (≈ 15.8 µM) | 4 (≈ 7.88 µM) | 32 (≈ 63 µM) | 4 (≈ 7.88 µM) |
| CC(=O)NC[C@H]1CN(c2ccc(N3CCN(C(=O)c4cc(Br)no4)CC3)c(F)c2)C(=O)O1 | 2 (≈ 3.92 µM) | 4 (≈ 7.84 µM) | 2 (≈ 3.92 µM) | 1 (≈ 1.96 µM) | 2 (≈ 3.92 µM) | 1 (≈ 1.96 µM) | 2 (≈ 3.92 µM) | 4 (≈ 7.84 µM) | 1 (≈ 1.96 µM) | 2 (≈ 3.92 µM) | 1 (≈ 1.96 µM) |
| CC(=O)NC[C@H]1CN(c2ccc(N3CCN(Cc4cc(-c5ccc(F)cc5)no4)CC3)c(F)c2)C(=O)O1 | 4 (≈ 7.82 µM) | 8 (≈ 15.6 µM) | 4 (≈ 7.82 µM) | 2 (≈ 3.91 µM) | 8 (≈ 15.6 µM) | 4 (≈ 7.82 µM) | 4 (≈ 7.82 µM) | 4 (≈ 7.82 µM) | 2 (≈ 3.91 µM) | 8 (≈ 15.6 µM) | 2 (≈ 3.91 µM) |
| CC(=O)NC[C@H]1CN(c2ccc(N3CCN(C(=O)c4cc(C(=O)O)no4)CC3)c(F)c2)C(=O)O1 | > 32 | > 32 | > 32 | > 32 | > 32 | – | – | > 32 | 16 (≈ 33.7 µM) | – | 16 (≈ 33.7 µM) |
| CC(=O)NC[C@H]1CN(c2ccc(N3CCN(C(=O)c4cc(C(N)=O)no4)CC3)c(F)c2)C(=O)O1 | 1 (≈ 2.11 µM) | 2 (≈ 4.22 µM) | 0.5 (≈ 1.05 µM) | 0.5 (≈ 1.05 µM) | 2 (≈ 4.22 µM) | 1 (≈ 2.11 µM) | 1 (≈ 2.11 µM) | 1 (≈ 2.11 µM) | 0.25 (≈ 0.527 µM) | 2 (≈ 4.22 µM) | 0.25 (≈ 0.527 µM) |
| COc1ccc(-c2cc(CN3CCN(c4ccc(N5C[C@H](CNC(C)=O)OC5=O)cc4F)CC3)on2)cc1OC | 4 (≈ 7.23 µM) | 4 (≈ 7.23 µM) | 4 (≈ 7.23 µM) | 2 (≈ 3.61 µM) | 4 (≈ 7.23 µM) | 2 (≈ 3.61 µM) | 2 (≈ 3.61 µM) | 4 (≈ 7.23 µM) | 1 (≈ 1.81 µM) | 4 (≈ 7.23 µM) | 2 (≈ 3.61 µM) |
| CC(=O)NC[C@H]1CN(c2ccc(N3CCN(C(=O)c4cc(C#N)no4)CC3)c(F)c2)C(=O)O1 | 2 (≈ 4.38 µM) | 2 (≈ 4.38 µM) | 0.5 (≈ 1.1 µM) | 0.5 (≈ 1.1 µM) | 2 (≈ 4.38 µM) | 1 (≈ 2.19 µM) | 1 (≈ 2.19 µM) | 1 (≈ 2.19 µM) | 0.25 (≈ 0.548 µM) | 2 (≈ 4.38 µM) | 0.25 (≈ 0.548 µM) |
| CC(=O)NC[C@H]1CN(c2ccc(N3CCN(C(=O)c4nccs4)CC3)c(F)c2)C(=O)O1 | 4 (≈ 8.94 µM) | 4 (≈ 8.94 µM) | 2 (≈ 4.47 µM) | 1 (≈ 2.23 µM) | 4 (≈ 8.94 µM) | 2 (≈ 4.47 µM) | 4 (≈ 8.94 µM) | 4 (≈ 8.94 µM) | 1 (≈ 2.23 µM) | 4 (≈ 8.94 µM) | 1 (≈ 2.23 µM) |
| CC(=O)NC[C@H]1CN(c2ccc(N3CCN(Cc4cc(-c5cccs5)no4)CC3)c(F)c2)C(=O)O1 | 2 (≈ 4 µM) | 4 (≈ 8.01 µM) | 1 (≈ 2 µM) | 4 (≈ 8.01 µM) | 4 (≈ 8.01 µM) | 4 (≈ 8.01 µM) | 22 (≈ 44 µM) | 2 (≈ 4 µM) | 1 (≈ 2 µM) | 2 (≈ 4 µM) | 1 (≈ 2 µM) |
| CC(=O)NC[C@H]1CN(c2ccc(N3CCN(C(=O)c4ccno4)CC3)c(F)c2)C(=O)O1 | 2 (≈ 4.64 µM) | 2 (≈ 4.64 µM) | 1 (≈ 2.32 µM) | 1 (≈ 2.32 µM) | 2 (≈ 4.64 µM) | 1 (≈ 2.32 µM) | 22 (≈ 51 µM) | 1 (≈ 2.32 µM) | 0.5 (≈ 1.16 µM) | 2 (≈ 4.64 µM) | 0.5 (≈ 1.16 µM) |
| CC(=O)NC[C@H]1CN(c2ccc(N3CCN(C(=O)c4cc(Cl)no4)CC3)c(F)c2)C(=O)O1 | 2 (≈ 4.29 µM) | 4 (≈ 8.59 µM) | 1 (≈ 2.15 µM) | 1 (≈ 2.15 µM) | 4 (≈ 8.59 µM) | 1 (≈ 2.15 µM) | 2 (≈ 4.29 µM) | 2 (≈ 4.29 µM) | 1 (≈ 2.15 µM) | 2 (≈ 4.29 µM) | 1 (≈ 2.15 µM) |
